The values below come from US10196668B2, “Reagents and methods for screening MPS I, II, IIIA, IIIB, IVA, VI, and VII” (University of Washington through its Center for …, priority 2013, dated 2019).

Structures can show the parent of a compound that is named as a salt.

Test [1] concerns the target T1, iduronate-2-sulfatase (MPS-II enzyme) (Homo sapiens, UniProt P22304).
T1 construct: from tissue; host or cells: dried blood spot (3 mm punch)
T1 sequence (P22304 34-550): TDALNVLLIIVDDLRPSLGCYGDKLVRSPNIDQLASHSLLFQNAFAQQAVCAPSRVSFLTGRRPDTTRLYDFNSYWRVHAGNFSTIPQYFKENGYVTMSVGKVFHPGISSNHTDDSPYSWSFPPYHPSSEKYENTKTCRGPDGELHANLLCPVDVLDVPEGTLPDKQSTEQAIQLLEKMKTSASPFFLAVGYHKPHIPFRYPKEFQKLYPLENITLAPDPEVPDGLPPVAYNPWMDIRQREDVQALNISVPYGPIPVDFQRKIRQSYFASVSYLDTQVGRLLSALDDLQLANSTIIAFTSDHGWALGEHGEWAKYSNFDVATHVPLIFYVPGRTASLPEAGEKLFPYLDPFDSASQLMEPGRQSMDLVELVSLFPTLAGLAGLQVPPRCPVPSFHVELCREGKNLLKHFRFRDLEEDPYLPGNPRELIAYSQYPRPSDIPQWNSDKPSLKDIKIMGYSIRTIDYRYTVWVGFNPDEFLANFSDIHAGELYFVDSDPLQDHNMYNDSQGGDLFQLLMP
Description: MPS-II enzyme assay with dried blood spot punch, tandem mass spectrometry. In kind it is biochemical. On the procedure:
The original and alternative MPS-II substrates were compared in side-by-side enzyme assays as follows: 1 mM substrate, 5 uM internal standard in 30 uL of buffer (100 mM ammonium formate, pH 4.0, 7.5 mM barium(II) acetate, 5.0 mM cerium(III) acetate). A 3 mm punch of a dried blood spot was added, and the mixtures were incubated with shaking for 16 hours at 37 deg C. The reactions were quenched by addition of 200 uL of 44 mM citric acid followed by addition of 400 uL ethyl acetate and 100 uL of water. After mixing up and down a few times with the pipet, the samples were centrifuged (10 min at 3000 rpm) to separate the liquid layers. A 200 uL portion of the upper ethyl acetate layer was transferred to a new well, and solvent was removed by evaporation with a stream of oil-free air. The residue was taken up in 100 uL of methanol/5 mM aqueous ammonium formate (80/20, v/v) and infused into the tandem mass spectrometer. The barium and cerium salts are present to precipitate free sulfate and phosphate present in the dried blood spot since these anions cause production inhibition of the MPS-II enzyme. The citric acid is used to acidify the mixture so that the carboxylate of the iduronic acid portion of the MPS-II product and internal standard is protonated and is extracted into ethyl acetate. […]

The target in test [2] is T2, N-acetylgalactosamine-4-sulfate-sulfatase (MPS-VI enzyme) (Homo sapiens, UniProt P15848).
T2 construct: from tissue; host or cells: dried blood spot (3 mm punch)
Put plainly: MPS-VI enzyme assay with dried blood spot punch, tandem mass spectrometry. It is filed as biochemical. On the procedure:
The original and alternative MPS-VI substrates were compared in side-by-side enzyme assays as follows: 1 mM substrate, 10 uM internal standard in 30 uL of buffer (100 mM ammonium formate, pH 4.0, 7.5 mM barium(II) acetate, 5.0 mM cerium(III) acetate). A 3 mm punch of a dried blood spot was added, and the mixtures were incubated with shaking for 16 hours at 37 deg C. The reactions were quenched by addition of an aqueous suspension (1:1) of DEAE cellulose (Whatmann DE52) (100 uL), followed by addition of 400 uL of ethyl acetate. The mixture was mixed by up and down pipetting a few times and then centrifuged (10 min at 3000 rpm) to separate the liquid layers and pellet the DE52. A 300 uL portion of the upper ethyl acetate layer was transferred to a new well, and solvent was removed by evaporation with a stream of oil-free air. The residue was taken up in 100 uL of methanol/5 mM aqueous ammonium formate (80/20, v/v) and infused into the tandem mass spectrometer. The barium and cerium salts are present to precipitate free sulfate and phosphate present in the dried blood spot since these anions cause production inhibition of the MPS-VI enzyme. The DE52 is added to trap remaining substrate so only product and internal standard (which are charge neutral) are extracted into ethyl acetate. […]

Where [3] appears, read: 1 mM substrate, 3 mm dried blood spot punch, pH 4.0, 16 hours at 37 deg C.
[4] abbreviates: activity with dried blood spot punch to that with blood-free punch.

T2 sequence (P15848 37-533): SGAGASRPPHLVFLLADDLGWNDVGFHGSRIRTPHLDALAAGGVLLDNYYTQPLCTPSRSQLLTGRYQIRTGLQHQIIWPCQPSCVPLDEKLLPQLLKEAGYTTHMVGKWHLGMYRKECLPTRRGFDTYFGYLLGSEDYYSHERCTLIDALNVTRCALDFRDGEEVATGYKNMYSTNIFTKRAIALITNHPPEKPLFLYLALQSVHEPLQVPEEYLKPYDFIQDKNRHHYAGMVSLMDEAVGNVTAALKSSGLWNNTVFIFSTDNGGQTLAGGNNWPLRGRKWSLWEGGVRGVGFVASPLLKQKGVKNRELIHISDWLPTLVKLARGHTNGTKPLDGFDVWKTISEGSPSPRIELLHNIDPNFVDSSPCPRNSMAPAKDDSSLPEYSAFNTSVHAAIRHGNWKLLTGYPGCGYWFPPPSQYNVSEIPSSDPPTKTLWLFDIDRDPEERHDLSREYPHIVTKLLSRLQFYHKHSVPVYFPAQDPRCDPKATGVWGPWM

For `CCCCC(=O)N(CCCCCCNC(=O)c1ccccc1)CCC(=O)Nc1ccc(OC2OC(C(=O)O)C(O)C(O)C2OS(=O)(=O)O)cc1` (stereo not shown) [Alternative MPS-II], the “Enzymatic Activity” value in test [1] (setting [3]) stood at 6 umole/hr/L blood. In addition, the “blood-no blood assay ratio” value in test [1] (setting [4]) worked out at 53.

Turning to `CCCCC(=O)N(CCCCCNC(=O)c1ccccc1)CCC(=O)Nc1ccc(OC2OC(CO)C(OS(=O)(=O)O)C(O)C2NC(C)=O)cc1` [Alternative MPS-VI, Sodium (2R,3R,4R,5R,6S)-5-acetamido-6(4(3-(N (5-benzamidopentyl)-pentanamido)propanamido)phenoxy)-4-hydroxy-2-(hydroxymethyl)tetrahydro-2H-pyran-3-yl sulfate], the “Enzymatic Activity” value in test [2] (setting [3]) is reported as 1.5 umole/hr/L blood. Further, in test [2] (setting [4]), the “blood-no blood assay ratio” value is recorded as 77.9.
